Laboratory results taken from patent US7202235B2, “Tetracycline compounds for treatment of cryptosporidium parvum related disorders” (Trustees of Tufts College, priority 2000, dated 2007).

system: Cryptosporidium parvum; test: Assay for the ability of tetracycline compounds to control Cryptosporidium parvum infection in vitro (indirect immunofluorescence parasite count); type: cell-based; details: C. parvum GCH1 oocysts in MDCK/MDBK cell monolayers, 48 hour incubation, IF parasite count, class by concentration giving 70% inhibition
Protocol: This assay is designed to test the ability of a tetracycline compound to control Cryptosporidium parvum infection in vitro. […] MDCK cells were grown in 96-well microtiter plastic plates, and were seeded with approximately 5×10^4 cells per well, using DMEM as the growth/maintenance medium with 10% FCS. Plates were normally grown to confluence 2–3 days after having been seeded with bleached, less than four week-old, C. parvum oocysts. The C. parvum isolate used most often was the human-derived, calf-propagated GCH1 (Tzipori, Clin. Diagn. Lab. Immunol. (1994) 1:450; Tzipori, J. Infect. Dis. (1995) 172:1160). The DMEM medium was also added to the negative control wells. The tetracycline compounds and the oocysts were added to the wells concurrently. The cells were subsequently monitored twice daily and any apparent morphologic changes were recorded. The monolayers were fixed with methanol after 48 hour incubation at 37° C. in 8% CO2. […] The tetracycline compounds were used at various concentrations (0.1–2000 μg/mL) and were dissolved directly into the culture medium. A conventional indirect immunofluorecensce (IF) assay was used to detect and enumerate parasite forms after 48-hour incubation. For the purposes of this assay, a polyclonal rabbit anti-sporozoite antibody was produced. […] The secondary antibody, a fluoroscein-conjugated goat anti-rabbit IgG, was used at a concentration of 1:100, according the manufacturer's instructions. The primary antibody was added after fixation for thirty minutes and after vigorous washing, the secondary antibody was incubated for another thirty minutes. The dried microtiter plate was viewed with an inverted microscope (x10 mag.), under ultraviolet light. For parasite counts, a semi-automated video imaging MCID system was used to facilitate the enumeration and analysis of the parasite data. In Table 1, good inhibition of C. parvum is indicated by ‘*’ (e.g., 70% inhibition at concentrations above 10 μg/ml and above) and very good inhibition of C. parvum is indicated by ‘**’ (e.g., 70% inhibition at concentrations below 10 μg/ml).

| Compound | IC70 |
| --- | --- |
| CN(C)c1cc(C#CC2=CCCCC2)c(O)c2c1CC1CC3[C@H](N(C)C)C(O)=C(C(N)=O)C(=O)[C@@]3(O)C(O)=C1C2=O (some centres unmarked) | < 10 µg/mL |
| C[C@H]1c2ccc(C(C)(C)C)c(O)c2C(=O)C2=C(O)[C@]3(O)C(=O)C(C(N)=O)=C(O)[C@@H](N(C)C)C3[C@@H](O)C21 (some centres unmarked) | < 10 µg/mL |
| C[C@H]1c2cccc(O)c2C(=O)C2=C(O)[C@]3(O)C(=O)C(C(N)=O)=C(O)[C@@H](N(C)C)C3[C@@H](O)C21 (some centres unmarked) | ≥ 10 µg/mL |
| CCC(=O)O[C@H]1C2C(=C(O)[C@]3(O)C(=O)C(C(N)=O)=C(O)[C@@H](N(C)C)C13)C(=O)c1c(ccc(C(C)(C)C)c1O)[C@@H]2C (some centres unmarked) | ≥ 10 µg/mL |
| CN(C)[C@@H]1C(O)=C(C(N)=O)C(=O)[C@@]2(O)C(O)=C3C(=O)c4c(O)cccc4SC3[C@H](O)C12 (some centres unmarked) | ≥ 10 µg/mL |
| C[C@H]1c2ccc(C3=CCCC3)c(O)c2C(=O)C2=C(O)[C@]3(O)C(=O)C(C(N)=O)=C(O)[C@@H](N(C)C)C3[C@@H](O)C21 (some centres unmarked) | < 10 µg/mL |
| CN(C)[C@@H]1C(O)=C(C(N)=O)C(=O)[C@@]2(O)C(O)=C3C(=O)c4c(O)cccc4[C@H](CSC4CCCC4)C3[C@H](O)C12 (some centres unmarked) | < 10 µg/mL |
| CCC(=O)O[C@H]1C2C(=C(O)[C@]3(O)C(=O)C(C(N)=O)=C(O)[C@@H](N(C)C)C13)C(=O)c1c(O)cccc1[C@@H]2CSC1CCCC1 (some centres unmarked) | < 10 µg/mL |
